Like-named read-outs stand apart in the source and are kept apart here.
What was measured:
[1] = biological target: T1, bovine serum albumin (BSA) (Bos taurus, UniProt P02769); test: Spectrofluorometric titration, binding to BSA; settings: for ΔHb / ΔSb: van't Hoff, 300-310 K
T1 construct: purchased Merck
Method: (§1) The binding affinities of complexes towards bovine serum albumin (BSA) and human serum albumin (HSA) were analyzed using the spectrofluorometric measurements on the Cary Eclipse MY2048CH03 instrument. The scan rate was set to 600 nm min^−1, with both slits being 5 nm. The excitation wavelength for BSA was set to 295 nm and for HSA to 280 nm. These wavelengths are characteristic of the tryptophan residues in the active pocket of proteins. The spectra were recorded from 310 to 500 nm. The concentration of both proteins was held constant at 5 × 10^−6 M, and prepared in 1 M phosphate buffer saline of pH 7.4.
(§2) The measurements were repeated at three temperatures (27, 32, and 37 °C) to mimic the body temperature and to allow for the calculation of the thermodynamic parameters of binding using the vant’t Hoff equation (Equation (2)):(2) lnKb=−ΔHb/RT+ΔSb/R where ΔHb, ΔSb, and ΔGb represent the change in the enthalpy, entropy, and free energy of the binding process, respectively.

[2] = biological target: human serum albumin (HSA) (Homo sapiens, UniProt P02768); test: Spectrofluorometric titration, binding to HSA; settings: for ΔHb / ΔSb: van't Hoff, 300-310 K
Method: as §1, §2

BSA = biological target: T2, BSA (Bos taurus, UniProt P02769); test: Competitive spectrofluorometric measurements with warfarin; assay type: binding, bovine; settings: for number of binding sites (n), competitive measurements with warfarin: BSA with equimolar warfarin; for BSA subdomain the complex binds to: concluded from competition with warfarin
T2 construct: purchased Merck
Method: as §1
The competitive measurements were performed in the presence of warfarin, a site-specific marker for BSA subdomain IIA [33]. The equimolar concentrations of BSA and warfarin were prepared (5 × 10^−6 M), and after 30 min of incubation, the titrations using the solutions of the investigated complexes were conducted. The final concentrations of the added complexes were the same as for the previous experiments.

A2780 ovarian cancer [3] = test: CV viability assay; assay type: cell-based, Human; settings: 72 h
Method: (§3) Human cell lines (A375 melanoma, MCF-7 breast cancer, HCT116 colorectal carcinoma, A2780 ovarian cancer, and MRC5 lung fibroblasts) were purchased from American Type Culture Collection (Rockville, MD, USA).
(§4) The A2780 cells were cultivated in DMEM, while all of the other cell lines were cultivated in the HEPES-buffered RPMI-1640 medium. The cell culture mediums were supplemented with penicillin (100 units/mL), streptomycin (100 μg/mL), and 10% inactivated FBS. All of the cells were cultivated at 37 °C in a humidified atmosphere with 5% CO2.
(§5) The cells were seeded overnight in 96-well plates: A2780 and MRC-5 8 × 10^3 cells/well, HCT 116 6 × 10^3 cells/well, A375 5 × 10^3 cells/well, and MCF-7 at 10 × 10^3 cells/well [58]. All of the cells were treated with the following concentrations of investigated compounds: 100, 50, 25, 12.5, 6.25, 3.125, and 1.56 μM, except for the A2780 cells, which were treated with the following concentrations for the Cu compound only: 25, 12.5, 6.25, 3.125, 1.56, 0.78, and 0.39 μM. After 72 h of treatment, viability assays were conducted.

A375 melanoma [4] = test: CV viability assay; assay type: cell-based, Human; settings: 72 h
Method: as §3, §4, §5

[5] = tested on: HCT116 colorectal carcinoma; test: CV viability assay; assay type: cell-based, Human; settings: 72 h
Method: as §3, §4, §5

MCF-7 breast cancer [6] = test: CV viability assay; assay type: cell-based, Human; settings: MCF-7, CV, 72 h
Method: as §3, §4, §5

MRC5 lung fibroblasts [7] = test: CV viability assay; assay type: cell-based, Human; settings: 72 h
Method: as §3, §4, §5

A2780 ovarian cancer [8] = test: MTT viability assay; assay type: cell-based, Human; settings: 72 h
Method: as §3, §4, §5

A375 melanoma [9] = test: MTT viability assay; assay type: cell-based, Human; settings: 72 h
Method: as §3, §4, §5

[10] = tested on: HCT116 colorectal carcinoma; test: MTT viability assay; assay type: cell-based, Human; settings: 72 h
Method: as §3, §4, §5

MCF-7 breast cancer [11] = test: MTT viability assay; assay type: cell-based, Human; settings: MCF-7, MTT, 72 h
Method: as §3, §4, §5

MRC5 lung fibroblasts [12] = test: MTT viability assay; assay type: cell-based, Human; settings: 72 h
Method: as §3, §4, §5

MCF-7 breast cancer [13] = tested on: MCF-7 breast cancer; design: method as in PMID 36364539; settings: MCF-7, MTT test; cited from earlier work

T1 sequence (P02769 25-607): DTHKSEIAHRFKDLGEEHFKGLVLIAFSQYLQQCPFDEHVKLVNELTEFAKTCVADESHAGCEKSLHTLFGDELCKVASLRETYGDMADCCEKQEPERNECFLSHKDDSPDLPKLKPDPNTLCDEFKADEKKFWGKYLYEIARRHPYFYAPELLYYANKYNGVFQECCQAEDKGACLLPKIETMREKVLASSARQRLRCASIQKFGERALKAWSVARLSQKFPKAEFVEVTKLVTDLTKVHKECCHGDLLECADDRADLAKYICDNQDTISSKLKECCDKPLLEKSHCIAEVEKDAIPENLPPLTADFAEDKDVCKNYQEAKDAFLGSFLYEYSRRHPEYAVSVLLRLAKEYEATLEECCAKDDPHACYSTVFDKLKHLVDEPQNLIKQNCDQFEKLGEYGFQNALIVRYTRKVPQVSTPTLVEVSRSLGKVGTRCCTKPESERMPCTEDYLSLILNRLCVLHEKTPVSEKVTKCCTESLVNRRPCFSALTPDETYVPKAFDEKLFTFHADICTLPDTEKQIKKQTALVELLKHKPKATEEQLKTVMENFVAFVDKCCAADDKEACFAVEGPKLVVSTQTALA
T2 sequence (P02769 25-607): as above
Chain of human serum albumin (HSA) (P02768 25-609): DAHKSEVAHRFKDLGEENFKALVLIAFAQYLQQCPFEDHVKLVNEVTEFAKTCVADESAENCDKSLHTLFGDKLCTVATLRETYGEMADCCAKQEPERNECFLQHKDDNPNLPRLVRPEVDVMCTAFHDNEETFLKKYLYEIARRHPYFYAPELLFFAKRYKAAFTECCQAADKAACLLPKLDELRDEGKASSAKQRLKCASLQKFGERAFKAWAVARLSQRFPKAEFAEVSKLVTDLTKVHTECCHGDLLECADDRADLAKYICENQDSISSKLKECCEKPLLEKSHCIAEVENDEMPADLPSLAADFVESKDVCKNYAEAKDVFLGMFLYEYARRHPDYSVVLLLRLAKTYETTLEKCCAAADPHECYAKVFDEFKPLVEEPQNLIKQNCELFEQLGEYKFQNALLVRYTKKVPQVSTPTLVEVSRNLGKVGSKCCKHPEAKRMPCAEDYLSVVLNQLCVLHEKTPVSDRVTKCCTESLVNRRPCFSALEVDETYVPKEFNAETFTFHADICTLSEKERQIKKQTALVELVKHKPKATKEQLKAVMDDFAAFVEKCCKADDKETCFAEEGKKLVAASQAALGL

SMILES | n (number of binding places) ([1]; T 300 K) | ΔGb ([1]; T 300 K) [kcal/mol] | n (number of binding places) ([1]; T 305 K) | ΔGb ([1]; T 305 K) [kcal/mol] | n (number of binding places) ([1]; T 310 K) | ΔGb ([1]; T 310 K) [kcal/mol] | ΔHb [1] [kcal/mol] | n (number of binding places) ([2]; T 300 K) | ΔGb ([2]; T 300 K) [kcal/mol] | n (number of binding places) ([2]; T 305 K) | ΔGb ([2]; T 305 K) [kcal/mol] | n (number of binding places) ([2]; T 310 K) | ΔGb ([2]; T 310 K) [kcal/mol] | ΔHb [2] [kcal/mol] | ΔSb [2] [J mol^−1 K^−1] | number of binding sites (n), competitive measurements with warfarin (BSA) | BSA subdomain the complex binds to (BSA) | IC50 (A2780 ovarian cancer [3]) [µM] | IC50 (A375 melanoma [4]) [µM] | IC50 [5] [µM] | other results
Cc1[nH+]cc(CO)c(C=NNC(N)=S)c1[O-].O.[Cl-].[Cl-].[Cl-].[Fe+3] [Fe-PLTSC, [Fe(PLTSC)Cl2(H2O)]Cl] | 1.1 | -7.03 | 1.1 | -7.22 | 1.1 | -7.39 | 3.7 | 1.2 | -8.08 | 1.2 | -8.46 | 1.1 | -8.82 | 13.9 | 307 | 1.10 | subdomain IIIA | 93.5 ± 9.2 | > 100 | > 100 | ΔSb [1]: 149 J mol^−1 K^−1; IC50 (MCF-7 breast cancer [6]): > 100 µM; IC50 (MRC5 lung fibroblasts [7]): > 100 µM; IC50 (A2780 ovarian cancer [8]): 86.3 ± 13.1 µM; IC50 (A375 melanoma [9]): > 100 µM; IC50 [10]: > 100 µM; IC50 (MCF-7 breast cancer [11]): > 100 µM; IC50 (MRC5 lung fibroblasts [12]): > 100 µM
Cc1[nH+]cc(CO)c(C=NN=C(N)[S-])c1[O-].Cc1[nH+]cc(CO)c(C=NN=C(N)[S-])c1[O-].O.[Cl-].[Co+3] [Co-PLTSC] | 1.1 | -7.34 | 1.1 | -7.74 | 1.1 | -8.15 | 16.8 | 1.0 | -6.74 | 1.0 | -6.91 | 1.0 | -7.05 | 3.04 | 136 | 1.01 | subdomains IIA and IIB | > 100 | > 100 | > 100 | Binding constant (Kb), competitive measurements with warfarin (BSA; BSA with equimolar warfarin (5 × 10^−6 M), 30 min incubation): 52500 M⁻¹; reduction percentages of the binding constants (BSA; BSA with warfarin vs without warfarin): 10%; IC50 (MCF-7 breast cancer [6]): > 100 µM; IC50 (MRC5 lung fibroblasts [7]): > 100 µM; IC50 (A2780 ovarian cancer [8]): > 100 µM; IC50 (A375 melanoma [9]): > 100 µM; IC50 [10]: > 100 µM; IC50 (MCF-7 breast cancer [11]): > 100 µM; IC50 (MRC5 lung fibroblasts [12]): > 100 µM
N.N.[Cl][Pt][Cl] [cisplatin] | – | – | – | – | – | – | – | – | – | – | – | – | – | – | – | – | – | – | – | – | IC50 (MCF-7 breast cancer [13]): 33.6 ± 4.8 µM
Cc1[nH+]cc(CO)c(C=NNC(N)=S)c1[O-].Cc1[nH+]cc(CO)c(C=NNC(N)=S)c1[O-].O.O=[N+]([O-])[O-].O=[N+]([O-])[O-].[Ni+2] [Ni-PLTSC, Ni-pyridoxal-thiosemicarbazone] | 1.2 | -9.97 | 1.2 | -9.8 | 1.2 | -9.66 | -19 | 1.2 | -8.87 | 1.2 | -8.89 | 1.2 | -8.89 | -7.5 | 15.5 | 1.30 | subdomain IIIA | > 100 | > 100 | > 100 | ΔSb [1]: −126 J mol^−1 K^−1; IC50 (MCF-7 breast cancer [6]): > 100 µM; IC50 (MRC5 lung fibroblasts [7]): > 100 µM; IC50 (A2780 ovarian cancer [8]): > 100 µM; IC50 (A375 melanoma [9]): > 100 µM; IC50 [10]: > 100 µM; IC50 (MCF-7 breast cancer [11]): > 100 µM; IC50 (MRC5 lung fibroblasts [12]): > 100 µM

From publication PMC10419307, “The Effect of Metal Ions (Fe, Co, Ni, and Cu) on the Molecular-Structural, Protein Binding, and Cytotoxic Properties of Metal Pyridoxal-Thiosemicarbazone Complexes” (International Journal of Molecular Sciences, 2023)
